From patent publication US10376499B2, “Combination therapy for treatment of resistant bacterial infections” (priority 2014, dated 2019)

How the values were obtained:
Enterobacter cloacae = experiment: MIC, recent Enterobacteriaceae clinical isolates: Enterobacter cloacae (Examples 7, 11); type: cell-based
Citrobacter spp = experiment: MIC, recent Enterobacteriaceae clinical isolates: Citrobacter spp (Examples 7, 11); type: cell-based; settings: Citrobacter spp, N 7
Enterobacteriaceae = experiment: organism not typed; type: cell-based
A. baumannii [1] = experiment: MIC, 20 diverse recent strains of A. baumannii (Example 10); type: cell-based, Acinetobacter baumannii; settings: N 20 A. baumannii strains
Escherichia coli = experiment: MIC, recent Enterobacteriaceae clinical isolates: Escherichia coli (Examples 7, 11); settings: Escherichia coli
Klebsiella pneumoniae = experiment: MIC, recent Enterobacteriaceae clinical isolates: Klebsiella pneumoniae (Examples 7, 11)
A. baumannii [2] = experiment: MIC90 of common antibiotics+compound 1, 196 contemporary clinical isolates of A. baumannii (Example 4); settings: B-lactam + Cmpd 1 (4 μg/mL)
A. baumannii [3] = experiment: MIC by broth microdilution (CLSI), panel of 60 A. baumannii clinical isolates (Example 1)
[4] = strain ARC2598, OXA*, TEM-1, OXA-113
[5] = strain ARC2635, OXA-65, OXA-40, TEM-1
[6] = strain ARC2636, OXA-65, OXA-40, TEM-1
[7] = strain ARC2681, OXA-40, TEM-1, OXA-132
[8] = strain ARC2778, OXA-40, TEM-1, OXA-65
[9] = strain ARC2779 (A. baumannii/calcoaceticus complex), OXA-2, VIM-2
[10] = strain ARC2780 (A. baumannii/calcoaceticus complex), OXA*, OXA-2, IMP-1
[11] = strain ARC2782, OXA-66, OXA-23, TEM-1, PER-1
[12] = strain ARC3484, TEM-1, OXA-23, OXA-64
[13] = strain ARC3486, OXA-72, OXA-66, TEM-1
[14] = strain ARC3487, OXA-20, OXA-58, OXA-66
[15] = strain ARC3490, TEM-1+, PSE-2, OXA-69
[16] = strain ARC3491 (A. baumannii/calcoaceticus complex), OXA-215
[17] = strain ARC3492, OXA-40, OXA-132, TEM-1
[18] = strain ARC3495, OXA-40, OXA-109
[19] = strain ARC3513, TEM-1, OXA-23, OXA-65
[20] = strain ARC3658, OXA-66, PER-1, TEM-1, OXA-23
[21] = strain ARC3882, OXA-23, NDM-1, OXA-10*
[22] = strain ARC5073, OXA-23, TEM-1, OXA-64, PER-1
[23] = strain ARC5074, GES*, TEM-1, OXA-51
[24] = strain ARC5076, TEM-1, OXA-23, OXA-66
[25] = strain ARC5084, IMP-4(B), OXA-58, OXA-65
[26] = strain ARC5086, OXA*, TEM-1, OXA-72, OXA-66
[27] = strain ARC5088, OXA-20, OXA-58, OXA-66
[28] = strain ARC5089, PER*, TEM-1, OXA-23, OXA-66

C[C@@H](O)[C@H]1C(=O)N2C(C(=O)O)=C(SCCNC=N)C[C@H]12 [Imipenem, (5R,6S)-3-[[2-(formimidoylamino)ethyl]thio]-6-[(R)-1-hydroxyethyl]-7-oxo-1-azabicyclo[3.2.0]hept-2-ene-2-carboxylic acid]
> 64 µg/mL: MIC90 (A. baumannii [1]) | MIC Max (A. baumannii [1])
16 µg/mL: MIC90 (A. baumannii [2])
0.5 µg/mL: MIC50 (Enterobacter cloacae; N 10, read-out: MIC50) | MIC50 (Citrobacter spp; read-out: MIC50) | MIC50 (Enterobacteriaceae) | MIC90 (Escherichia coli)
1 µg/mL: MIC90 (Enterobacter cloacae; N 10)
4 µg/mL: MIC90 (Citrobacter spp; read-out: MIC90) | MIC90 (Enterobacteriaceae)
0.25 µg/mL: MIC Min (A. baumannii [1]) | MIC50 (Escherichia coli) | MIC50 (Klebsiella pneumoniae)
64 µg/mL: MIC50 (A. baumannii [1])
8 µg/mL: MIC90 (Klebsiella pneumoniae)

CCN1CCN(C(=O)N[C@@H](C(=O)N[C@@H]2C(=O)N3[C@@H]2SC(C)(C)[C@@H]3C(=O)O)c2ccccc2)C(=O)C1=O [Piperacillin]
32 µg/mL: MIC90 (A. baumannii [2])

colistin
>32 µg/mL: MIC (A. baumannii [3]; strain ARC5092, OXA-23, OXA-64)
2 µg/mL: MIC (A. baumannii [3]; strain ARC3488, OXA*, OXA-68)
0.5 µg/mL: MIC (A. baumannii [3]; strain ARC593, OXA-98) | MIC (A. baumannii [3]; strain ARC2058, OXA-95) | MIC (A. baumannii [3]; strain ARC2777, OXA-172, TEM-1) | MIC (A. baumannii [3]; [15]) | MIC (A. baumannii [3]; [16]) | MIC (A. baumannii [3]; strain ARC3494, OXA-65) | MIC (A. baumannii [3]; strain ARC3657, OXA-130) | MIC (A. baumannii [3]; strain ARC5077, OXA*, OXA-72) | MIC (A. baumannii [3]; strain ARC5082, OXA-66, OXA-23)
8 µg/mL: MIC (A. baumannii [3]; strain ARC5091, OXA-82, OXA-23)
1 µg/mL: MIC (A. baumannii [3]; [19]) | MIC (A. baumannii [3]; strain ARC5085, OXA*, TEM-1)
0.25 µg/mL: MIC (A. baumannii [3]; [4]) | MIC (A. baumannii [3]; [5]) | MIC (A. baumannii [3]; strain ARC2674, SHV-5, OXA-113) | MIC (A. baumannii [3]; [7]) | MIC (A. baumannii [3]; strain ARC2682, SHV-5, OXA-113) | MIC (A. baumannii [3]; [8]) | MIC (A. baumannii [3]; [9]) | MIC (A. baumannii [3]; strain ARC3485, OXA-82) | MIC (A. baumannii [3]; [13]) | MIC (A. baumannii [3]; [14]) | MIC (A. baumannii [3]; strain ARC3489, OXA*, OXA-68) | MIC (A. baumannii [3]; [17]) | MIC (A. baumannii [3]; [18]) | MIC (A. baumannii [3]; strain ARC3515, OXA-64, OXA-58) | MIC (A. baumannii [3]; [20]) | MIC (A. baumannii [3]; strain ARC3659, OXA-23, OXA*) | MIC (A. baumannii [3]; strain ARC5075, SHV-5, OXA-113) | MIC (A. baumannii [3]; [24]) | MIC (A. baumannii [3]; strain ARC5080, OXA-71, OXA-40) | MIC (A. baumannii [3]; strain ARC5087, OXA-66, OXA-23)
32 µg/mL: MIC (A. baumannii [3]; strain ARC3493, OXA-40, OXA-66)
0.125 µg/mL: MIC (A. baumannii [3]; strain ARC2461, OXA-66, TEM-1) | MIC (A. baumannii [3]; strain ARC2462, TEM-1, OXA-66) | MIC (A. baumannii [3]; [6]) | MIC (A. baumannii [3]; strain ARC2675, SHV-5, OXA-113) | MIC (A. baumannii [3]; [11]) | MIC (A. baumannii [3]; strain ARC2788, OXA-65, TEM-1) | MIC (A. baumannii [3]; [12]) | MIC (A. baumannii [3]; [21]) | MIC (A. baumannii [3]; [22]) | MIC (A. baumannii [3]; [23]) | MIC (A. baumannii [3]; strain ARC5079, OXA-72, OXA-65) | MIC (A. baumannii [3]; strain ARC5081, OXA-94, OXA-23) | MIC (A. baumannii [3]; strain ARC5083, OXA-66, OXA-23) | MIC (A. baumannii [3]; [25]) | MIC (A. baumannii [3]; [26]) | MIC (A. baumannii [3]; [27]) | MIC (A. baumannii [3]; [28])
4 µg/mL: MIC (A. baumannii [3]; [10])

gentamycin
8 µg/mL: MIC (A. baumannii [3]; strain ARC593, OXA-98) | MIC (A. baumannii [3]; strain ARC2674, SHV-5, OXA-113) | MIC (A. baumannii [3]; [14]) | MIC (A. baumannii [3]; [24]) | MIC (A. baumannii [3]; strain ARC5079, OXA-72, OXA-65) | MIC (A. baumannii [3]; [27])
0.25 µg/mL: MIC (A. baumannii [3]; strain ARC3494, OXA-65) | MIC (A. baumannii [3]; strain ARC3657, OXA-130) | MIC (A. baumannii [3]; strain ARC5081, OXA-94, OXA-23)
1 µg/mL: MIC (A. baumannii [3]; strain ARC2058, OXA-95) | MIC (A. baumannii [3]; strain ARC3485, OXA-82)
0.125 µg/mL: MIC (A. baumannii [3]; [23])
2 µg/mL: MIC (A. baumannii [3]; [4]) | MIC (A. baumannii [3]; [16])
16 µg/mL: MIC (A. baumannii [3]; strain ARC2777, OXA-172, TEM-1) | MIC (A. baumannii [3]; strain ARC2788, OXA-65, TEM-1) | MIC (A. baumannii [3]; [15])
>32 µg/mL: MIC (A. baumannii [3]; strain ARC2461, OXA-66, TEM-1) | MIC (A. baumannii [3]; strain ARC2462, TEM-1, OXA-66) | MIC (A. baumannii [3]; [5]) | MIC (A. baumannii [3]; [6]) | MIC (A. baumannii [3]; strain ARC2675, SHV-5, OXA-113) | MIC (A. baumannii [3]; [7]) | MIC (A. baumannii [3]; strain ARC2682, SHV-5, OXA-113) | MIC (A. baumannii [3]; [8]) | MIC (A. baumannii [3]; [9]) | MIC (A. baumannii [3]; [10]) | MIC (A. baumannii [3]; [11]) | MIC (A. baumannii [3]; [12]) | MIC (A. baumannii [3]; [13]) | MIC (A. baumannii [3]; strain ARC3488, OXA*, OXA-68) | MIC (A. baumannii [3]; strain ARC3489, OXA*, OXA-68) | MIC (A. baumannii [3]; [17]) | MIC (A. baumannii [3]; strain ARC3493, OXA-40, OXA-66) | MIC (A. baumannii [3]; [18]) | MIC (A. baumannii [3]; [19]) | MIC (A. baumannii [3]; [20]) | MIC (A. baumannii [3]; strain ARC3659, OXA-23, OXA*) | MIC (A. baumannii [3]; [21]) | MIC (A. baumannii [3]; strain ARC5075, SHV-5, OXA-113) | MIC (A. baumannii [3]; strain ARC5077, OXA*, OXA-72) | MIC (A. baumannii [3]; strain ARC5080, OXA-71, OXA-40) | MIC (A. baumannii [3]; strain ARC5083, OXA-66, OXA-23) | MIC (A. baumannii [3]; [25]) | MIC (A. baumannii [3]; strain ARC5085, OXA*, TEM-1) | MIC (A. baumannii [3]; [26]) | MIC (A. baumannii [3]; strain ARC5087, OXA-66, OXA-23) | MIC (A. baumannii [3]; [28]) | MIC (A. baumannii [3]; strain ARC5091, OXA-82, OXA-23) | MIC (A. baumannii [3]; strain ARC5092, OXA-23, OXA-64)
4 µg/mL: MIC (A. baumannii [3]; strain ARC3515, OXA-64, OXA-58)
0.5 µg/mL: MIC (A. baumannii [3]; [22]) | MIC (A. baumannii [3]; strain ARC5082, OXA-66, OXA-23)
